{"source": "patent US11331369B2", "about": "“Endoparasitic depsipeptides” (Zoetis Services LLC, priority 2017, dated 2022)", "data": [{"system": "microfilariae of Dirofilaria immitis", "assay": "Dirofilaria immitis, Microfilaria (DiMF) In vitro Assay", "format": "cell-based", "conditions": "72 h, read-out: DiMF Minimum Effective Dose (MED), approximately 72 hours incubation, microfilariae assessed for survival or paralysis", "units": {"minimal effective concentration": "µM"}, "values": [{"smiles": "CC(C)C[C@H]1C(=O)O[C@H](Cc2ccc(Cn3c(=O)ccc4ccccc43)cc2)C(=O)N(C)[C@@H](CC(C)C)C(=O)O[C@H](C)C(=O)N(C)[C@@H](CC(C)C)C(=O)O[C@H](Cc2ccccc2)C(=O)N(C)[C@@H](CC(C)C)C(=O)O[C@H](C)C(=O)N1C", "note": "[Example 10-12, (3S,6R,9S,12R,15S,18R,21S,24R)-6-benzyl-3,9,15,21-tetraisobutyl-4,10,12,16,22,24-hexamethyl-18-(4-((2-oxoquinolin-1 (2H)-yl)methyl)benzyl)-1,7,13,19-tetraoxa-4,10,16,22-tetraazacyclotetracosan-2,5,8,11,14,17,20,23-octaone]", "minimal effective concentration": "0.01 to 0.1"}, {"smiles": "CC(C)C[C@H]1C(=O)O[C@H](Cc2ccc(Cn3ccc4cccnc43)cc2)C(=O)N(C)[C@@H](CC(C)C)C(=O)O[C@H](C)C(=O)N(C)[C@@H](CC(C)C)C(=O)O[C@H](Cc2ccccc2)C(=O)N(C)[C@@H](CC(C)C)C(=O)O[C@H](C)C(=O)N1C", "note": "[Example 10-14, (3S,6R,9S,12R,15S,18R,21S,24R)-6-(4-((1H-pyrrolo[2,3-b]pyridin-1-yl)methyl)benzyl)-18-benzyl-3,9,15,21-tetraisobutyl-4,10,12,16,22,24-hexamethyl-1,7,13,19-tetraoxa-4,10,16,22-tetraazacyclotetracosan-2,5,8,11,14,17,20,23-octaone]", "minimal effective concentration": "0.01 to 0.1"}, {"smiles": "CC(C)C[C@H]1C(=O)O[C@H](Cc2ccc(CN3CCOc4ccccc43)cc2)C(=O)N(C)[C@@H](CC(C)C)C(=O)O[C@H](C)C(=O)N(C)[C@@H](CC(C)C)C(=O)O[C@H](Cc2ccccc2)C(=O)N(C)[C@@H](CC(C)C)C(=O)O[C@H](C)C(=O)N1C", "note": "[Example 10-16, (3S,6R,9S,12R,15S,18R,21S,24R)-6-benzyl-18-(4-((2,3-dihydro-4H-benzo[b][1,4]oxazin-4-yl)methyl)benzyl)-3,9,15,21-tetraisobutyl-4,10,12,16,22,24-hexamethyl-1,7,13,19-tetraoxa-4,10,16,22-tetraazacyclotetracosan-2,5,8,11,14,17,20,23-octaone]", "minimal effective concentration": "0.01 to 0.1"}, {"smiles": "CC(C)C[C@H]1C(=O)O[C@H](Cc2ccc(Cn3cc(CO)nn3)cc2)C(=O)N(C)[C@@H](CC(C)C)C(=O)O[C@H](C)C(=O)N(C)[C@@H](CC(C)C)C(=O)O[C@H](Cc2ccccc2)C(=O)N(C)[C@@H](CC(C)C)C(=O)O[C@H](C)C(=O)N1C", "note": "[Example 10-19, (3S,6R,9S,12R,15S,18R,21S,24R)-6-benzyl-18-(4-((4-(hydroxymethyl)-1H-1,2,3-triazol-1-yl)methyl)benzyl)-3,9,15,21-tetraisobutyl-4,10,12,16,22,24-hexamethyl-1,7,13,19-tetraoxa-4,10,16,22-tetraazacyclotetracosan-2,5,8,11,14,17,20,23-octaone]", "minimal effective concentration": "0.01 to 0.1"}, {"smiles": "Cc1ccc(OCc2cn(Cc3ccc(C[C@H]4OC(=O)[C@H](CC(C)C)N(C)C(=O)[C@@H](C)OC(=O)[C@H](CC(C)C)N(C)C(=O)[C@@H](Cc5ccccc5)OC(=O)[C@H](CC(C)C)N(C)C(=O)[C@@H](C)OC(=O)[C@H](CC(C)C)N(C)C4=O)cc3)nn2)cc1", "note": "[Example 10-21, (3S,6R,9S,12R,15S,18R,21S,24R)-6-benzyl-3,9,15,21-tetraisobutyl-4,10,12,16,22,24-hexamethyl-18-(4-((4-((p-tolyloxy)methyl)-1H-1,2,3-triazol-1-yl)methyl)benzyl)-1,7,13,19-tetraoxa-4,10,16,22-tetraazacyclotetracosan-2,5,8,11,14,17,20,23-octaone]", "minimal effective concentration": "0.01 to 0.1"}, {"smiles": "COc1ccc(OCc2cn(Cc3ccc(C[C@H]4OC(=O)[C@H](CC(C)C)N(C)C(=O)[C@@H](C)OC(=O)[C@H](CC(C)C)N(C)C(=O)[C@@H](Cc5ccccc5)OC(=O)[C@H](CC(C)C)N(C)C(=O)[C@@H](C)OC(=O)[C@H](CC(C)C)N(C)C4=O)cc3)nn2)cc1", "note": "[Example 10-22, (3S,6R,9S,12R,15S,18R,21S,24R)-6-benzyl-3,9,15,21-tetraisobutyl-18-(4-((4-((4-methoxyphenoxy)methyl)-1H-1,2,3-triazol-1-yl)methyl)benzyl)-4,10,12,16,22,24-hexamethyl-1,7,13,19-tetraoxa-4,10,16,22-tetraazacyclotetracosan-2,5,8,11,14,17,20,23-octaone]", "minimal effective concentration": "0.01 to 0.1"}, {"smiles": "CC(C)C[C@H]1C(=O)O[C@H](Cc2ccc(Cn3cc(COc4cccc(C#N)c4)nn3)cc2)C(=O)N(C)[C@@H](CC(C)C)C(=O)O[C@H](C)C(=O)N(C)[C@@H](CC(C)C)C(=O)O[C@H](Cc2ccccc2)C(=O)N(C)[C@@H](CC(C)C)C(=O)O[C@H](C)C(=O)N1C", "note": "[Example 10-23, 3-((1-(4-(((2R,5S,8R,11S,14R,17S,20R,23S)-14-benzyl-5,11,17,23-tetraisobutyl-4,8,10,16,20,22-hexamethyl-3,6,9,12,15,18,21,24-octaoxo-1,7,13,19-tetraoxa-4,10,16,22-tetraazacyclotetracosan-2-yl)methyl)benzyl)-1H-1,2,3-triazol-4-yl)methoxy)benzonitrile]", "minimal effective concentration": "0.01 to 0.1"}, {"smiles": "CC(C)C[C@H]1C(=O)O[C@H](Cc2ccc(CN3CC(CO)OC3=O)cc2)C(=O)N(C)[C@@H](CC(C)C)C(=O)O[C@H](C)C(=O)N(C)[C@@H](CC(C)C)C(=O)O[C@H](Cc2ccccc2)C(=O)N(C)[C@@H](CC(C)C)C(=O)O[C@H](C)C(=O)N1C", "note": "(stereo partly drawn) [Example 10-24, (3S,6R,9S,12R,15S,18R,21S,24R)-6-benzyl-18-(4-((5-(hydroxymethyl)-2-oxooxazolidin-3-yl)methyl)benzyl)-3,9,15,21-tetraisobutyl-4,10,12,16,22,24-hexamethyl-1,7,13,19-tetraoxa-4,10,16,22-tetraazacyclotetracosan-2,5,8,11,14,17,20,23-octaone]", "minimal effective concentration": "0.01 to 0.1"}, {"smiles": "CC(C)C[C@H]1C(=O)O[C@H](Cc2ccc(CN3CCCOC3=O)cc2)C(=O)N(C)[C@@H](CC(C)C)C(=O)O[C@H](C)C(=O)N(C)[C@@H](CC(C)C)C(=O)O[C@H](Cc2ccccc2)C(=O)N(C)[C@@H](CC(C)C)C(=O)O[C@H](C)C(=O)N1C", "note": "[Example 10-25, (3S,6R,9S,12R,15S,18R,21S,24R)-6-benzyl-3,9,15,21-tetraisobutyl-4,10,12,16,22,24-hexamethyl-18-(4-((2-oxo-1,3-oxazinan-3-yl)methyl)benzyl)-1,7,13,19-tetraoxa-4,10,16,22-tetraazacyclotetracosan-2,5,8,11,14,17,20,23-octaone]", "minimal effective concentration": "0.01 to 0.1"}, {"smiles": "CC(C)C[C@H]1C(=O)O[C@H](Cc2ccc(Cn3ncc4ccccc43)cc2)C(=O)N(C)[C@@H](CC(C)C)C(=O)O[C@H](C)C(=O)N(C)[C@@H](CC(C)C)C(=O)O[C@H](Cc2ccccc2)C(=O)N(C)[C@@H](CC(C)C)C(=O)O[C@H](C)C(=O)N1C", "note": "[Example 10-26, (3S,6R,9S,12R,15S,18R,21S,24R)-6-(4-((1H-indazol-1-yl)methyl)benzyl)-18-benzyl-3,9,15,21-tetraisobutyl-4,10,12,16,22,24-hexamethyl-1,7,13,19-tetraoxa-4,10,16,22-tetraazacyclotetracosan-2,5,8,11,14,17,20,23-octaone]", "minimal effective concentration": "0.01 to 0.1"}, {"smiles": "CC(C)C[C@H]1C(=O)O[C@H](Cc2ccc(Cn3cc4c(n3)CNC4)cc2)C(=O)N(C)[C@@H](CC(C)C)C(=O)O[C@H](C)C(=O)N(C)[C@@H](CC(C)C)C(=O)O[C@H](Cc2ccccc2)C(=O)N(C)[C@@H](CC(C)C)C(=O)O[C@H](C)C(=O)N1C", "note": "[Example 10-27, (3S,6R,9S,12R,15S,18R,21S,24R)-6-benzyl-18-(4-((5,6-dihydropyrrolo[3,4-c]pyrazol-2(4H)-yl)methyl)benzyl)-3,9,15,21-tetraisobutyl-4,10,12,16,22,24-hexamethyl-1,7,13,19-tetraoxa-4,10,16,22-tetraazacyclotetracosan-2,5,8,11,14,17,20,23-octaone]", "minimal effective concentration": "0.01 to 0.1"}, {"smiles": "CC(C)C[C@H]1C(=O)O[C@H](Cc2ccc(Cn3cc4c(n3)CCOC4)cc2)C(=O)N(C)[C@@H](CC(C)C)C(=O)O[C@H](C)C(=O)N(C)[C@@H](CC(C)C)C(=O)O[C@H](Cc2ccccc2)C(=O)N(C)[C@@H](CC(C)C)C(=O)O[C@H](C)C(=O)N1C", "note": "[Example 10-28, (3S,6R,9S,12R,15S,18R,21S,24R)-6-benzyl-18-(4-((6,7-dihydropyrano[4,3-c]pyrazol-2(4H)-yl)methyl)benzyl)-3,9,15,21-tetraisobutyl-4,10,12,16,22,24-hexamethyl-1,7,13,19-tetraoxa-4,10,16,22-tetraazacyclotetracosan-2,5,8,11,14,17,20,23-octaone]", "minimal effective concentration": "0.01 to 0.1"}, {"smiles": "CC(C)C[C@H]1C(=O)O[C@H](Cc2ccc(Cn3cc4c(n3)CN(C)C4)cc2)C(=O)N(C)[C@@H](CC(C)C)C(=O)O[C@H](C)C(=O)N(C)[C@@H](CC(C)C)C(=O)O[C@H](Cc2ccccc2)C(=O)N(C)[C@@H](CC(C)C)C(=O)O[C@H](C)C(=O)N1C", "note": "[Example 10-32, (3S,6R,9S,12R,15S,18R,21S,24R)-6-benzyl-3,9,15,21-tetraisobutyl-4,10,12,16,22,24-hexamethyl-18-(4-((5-methyl-5,6-dihydropyrrolo[3,4-c]pyrazol-2(4H)-yl)methyl)benzyl)-1,7,13,19-tetraoxa-4,10,16,22-tetraazacyclotetracosan-2,5,8,11,14,17,20,23-octaone]", "minimal effective concentration": "0.01 to 0.1"}, {"smiles": "CC(C)C[C@H]1C(=O)O[C@H](Cc2ccc(CN3CCS(=O)(=O)c4ccccc43)cc2)C(=O)N(C)[C@@H](CC(C)C)C(=O)O[C@H](C)C(=O)N(C)[C@@H](CC(C)C)C(=O)O[C@H](Cc2ccc(CN3CCS(=O)(=O)c4ccccc43)cc2)C(=O)N(C)[C@@H](CC(C)C)C(=O)O[C@H](C)C(=O)N1C", "note": "[Example 10-33, (3S,6R,9S,12R,15S,18R,21S,24R)-6,18-bis(4-((1,1-dioxido-2,3-dihydro-4H-benzo[b][1,4]thiazin-4-yl)methyl)benzyl)-3,9,15,21-tetraisobutyl-4,10,12,16,22,24-hexamethyl-1,7,13,19-tetraoxa-4, 10,16,22-tetraazacyclotetracosan-2,5,8,11,14,17,20,23-octaone]", "minimal effective concentration": "0.01 to 0.1"}]}]}
